{"source": "patent US11834431B2", "about": "“Crystals of cyclic amine derivative and pharmaceutical use thereof” (Toray Industries, Inc., priority 2016, dated 2023)", "key": {"[1]": {"assay": "Evaluation of storage stability of Form A crystal, 6 months (HPLC purity, powder X-ray diffraction, TG-DTA)", "type": "physicochemical"}, "fibromyalgia model rats": {"tested_on": "fibromyalgia model rats", "assay": "Analgesic effect on allodynia in fibromyalgia model rats (von Frey, 50% response threshold)", "type": "in vivo, rat", "conditions": "measured 3 hours after administration, Day 7, compared to negative control group", "method": "The analgesic effect of the crystal of compound (I) or the pharmacologically acceptable salt thereof against fibromyalgia syndrome was evaluated using fibromyalgia model rats (Sluka et al., Journal of Pharmacology and Experimental Therapeutics, 2002, vol. 302, pp. 1146-1150; Nagakura et al., Pain, 2009, vol. 146, pp. 26-33; Sluka et al., Pain, 2009, vol. 146, pp. 3-4). Form A crystal of compound (I) was used as a crystal of compound (I) or the pharmacologically acceptable salt thereof for evaluation.\nThe above model rats were prepared as follows. In experiments, 6-to 7-week-old SD male rats were used for 5 or 6 cases per group. 100 μL of acidic physiological saline adjusted to pH 4.0 was administered twice to the gastrocnemius muscle of the right hind paw of each rat (the day of the administration of acidic physiological saline was defined as Day 1 after the start of the experiment, and single dose administrations were carried out on Days 1 and 6 after the start of the experiment) under inhalation anesthesia with isoflurane. The thus prepared group was determined to be an acidic physiological saline group. As a control for the model, a group treated with a physiological saline instead of an acidic physiological saline was determined to be a physiological saline group.\nAllodynia observed in fibromyalgia model rats was measured using a von Frey filaments according to a method described in a known publication (Chaplan et al., Journal of Neuroscience Methods, 1994, vol. 53, pp. 55-63) and a 50% response threshold (g) was determined. On Day 7 after the start of the experiment, allodynia was measured 3 hours after oral administration of Form A crystal of compound (I), and the analgesic effect was evaluated. Allodynia of the acidic physiological saline group was measured before oral administration of Form A crystal of compound (I). […] Allodynia was measured 3 hours after the oral administration of the crystal of compound (I), and the analgesic effect was evaluated. […]"}, "[2]": {"conditions": "Storage test 1: 25° C., relative humidity 60%, open state"}, "[3]": {"conditions": "Storage test 2: 40° C., relative humidity 75%, airtight state"}, "[4]": {"conditions": "Storage test 3: 60° C., airtight state"}, "[5]": {"conditions": "any of storage tests 1 to 3, 6 months"}}, "data": [{"smiles": "CN(C)C1CCN(C(=O)C[C@H](O)c2nccn2C)CC1", "note": "[Form A crystal, (S)-1-(4-(dimethylamino)piperidin-1-yl)-3-hydroxy-3-(1-methyl-1H-imidazol-2-yl)propan-1-one]", "values": [{"measurement": "Chemical purity, After 6 months", "setting": "[1]; [2]", "result": 99.8, "unit": "%"}, {"measurement": "Crystal form after 6 months", "setting": "[1]; [2]", "result": "Form A"}, {"measurement": "Decomposition product increased by not less than 0.15% after 6 months", "setting": "[1]; [2]", "result": "None"}, {"measurement": "Optical purity, After 6 months", "setting": "[1]; [2]", "result": 99.0, "unit": "% ee"}, {"measurement": "Chemical purity, After 6 months", "setting": "[1]; [3]", "result": 99.8, "unit": "%"}, {"measurement": "Crystal form after 6 months", "setting": "[1]; [3]", "result": "Form A"}, {"measurement": "Decomposition product increased by not less than 0.15% after 6 months", "setting": "[1]; [3]", "result": "None"}, {"measurement": "Optical purity, After 6 months", "setting": "[1]; [3]", "result": 99.0, "unit": "% ee"}, {"measurement": "Chemical purity, After 6 months", "setting": "[1]; [4]", "result": 99.8, "unit": "%"}, {"measurement": "Crystal form after 6 months", "setting": "[1]; [4]", "result": "Form A"}, {"measurement": "Decomposition product increased by not less than 0.15% after 6 months", "setting": "[1]; [4]", "result": "None"}, {"measurement": "Optical purity, After 6 months", "setting": "[1]; [4]", "result": 99.0, "unit": "% ee"}, {"measurement": "change in the crystal form on storage", "setting": "[1]; [5]", "result": "no change was observed"}, {"measurement": "change of purity on storage", "setting": "[1]; [5]", "result": "did not change"}, {"measurement": "Chemical purity, Initial value", "setting": "[1]; before storage", "result": 99.8, "unit": "%"}, {"measurement": "Optical purity, Initial value", "setting": "[1]; before storage", "result": 98.8, "unit": "% ee"}, {"measurement": "improvement of allodynia (50% response threshold)", "setting": "fibromyalgia model rats; oral 1 mg/kg", "result": "significant improvement"}, {"measurement": "improvement of allodynia (50% response threshold)", "setting": "fibromyalgia model rats; oral 10 mg/kg", "result": "significant improvement"}]}]}
